Experimental data taken from ChEMBL document CHEMBL1255511, “Design of a series of bicyclic HIV-1 integrase inhibitors. Part 1: selection of the scaffold” (Bioorg Med Chem Lett, 2010).

Tests used:
[1] = biological target: Human immunodeficiency virus type 1 integrase (Human immunodeficiency virus 1, UniProt Q7ZJM1); experiment: Inhibition of HIV1 integrase 3'-strand transfer
[2] = test system: Human immunodeficiency virus 1; experiment: Antiviral activity against HIV1 NL4-3 infected in human Hut78 cells assessed as inhibition of viral replication in presence of 10 % fetal bovine serum; assay type: functional, organism-based; conditions: Human immunodeficiency virus 1, NL4-3, HuT78
[3] = test system: Human immunodeficiency virus 1; experiment: Antiviral activity against HIV1 NL4-3 infected in human Hut78 cells assessed as inhibition of viral replication in 50 % normal human serum; assay type: functional, organism-based; conditions: Human immunodeficiency virus 1, NL4-3, HuT78, Serum

Human immunodeficiency virus type 1 integrase, sequence (Q7ZJM1 whole entry): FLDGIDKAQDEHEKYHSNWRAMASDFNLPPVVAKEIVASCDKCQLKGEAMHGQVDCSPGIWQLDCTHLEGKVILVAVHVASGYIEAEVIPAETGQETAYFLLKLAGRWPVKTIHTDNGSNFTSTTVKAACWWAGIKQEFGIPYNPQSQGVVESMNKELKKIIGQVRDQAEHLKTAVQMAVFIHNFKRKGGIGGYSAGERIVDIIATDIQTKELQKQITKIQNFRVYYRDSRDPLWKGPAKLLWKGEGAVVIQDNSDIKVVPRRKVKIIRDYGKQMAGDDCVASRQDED

Compound | IC50 [1] [µM] | EC50 [2] [µM] | EC50 [3] [µM]
Cn1ccn2c(=O)c(O)c(C(=O)NCc3ccc(F)cc3)nc12 | 0.0768 | – | –
O=C(NCc1ccc(F)cc1)c1nc2cc(-c3ccccc3)[nH]n2c(=O)c1O | > 100 | – | –
O=C(NCc1ccc(F)cc1)c1nc2c(N3CCOCC3)cc(N3CCOCC3)cn2c(=O)c1O | 0.755 | 0.73 | 1.55
O=C(NCc1ccc(F)cc1)c1nc2c(N3CCCS3(=O)=O)cc(N3CCNCC3)cn2c(=O)c1O | – | 0.28 | 0.043
O=C(NCc1ccc(F)cc1)c1nc2c(OCC3CC3)cc(N3CCOCC3)cn2c(=O)c1O | 0.429 | 0.012 | 0.59
O=C(NCc1ccc(F)cc1)c1nc2c(Cl)cc(N3CCOCC3)cn2c(=O)c1O | 0.135 | 0.011 | 0.158
CCN(C(=O)C(=O)N1CCOCC1)c1cccn2c(=O)c(O)c(C(=O)NCc3ccc(F)cc3)nc12 | – | 0.031 | –
Cn1c2ccccc2n2c(=O)c(O)c(C(=O)NCc3ccc(F)cc3)nc12 | 20.2 | – | –
O=C(NCc1ccc(F)cc1)c1nc2c(N3CCCS3(=O)=O)cc(N3CCOCC3)cn2c(=O)c1O | 0.195 | 0.0103 | 0.018
Cc1nnc(C(=O)NC(C)(C)c2nc(C(=O)NCc3ccc(F)cc3)c(O)c(=O)n2C)o1 [RALTEGRAVIR POTASSIUM] | – | 0.0094 | 0.0071
Cn1ccc2nc(C(=O)NCc3ccc(F)cc3)c(O)c(=O)n21 | > 30 | – | –
O=C(NCc1ccc(F)cc1)c1nc2[nH]c3ccccc3n2c(=O)c1O | > 100 | – | –
CC(=O)N1CCN(c2cc(Br)c3nc(C(=O)NCc4ccc(F)cc4)c(O)c(=O)n3c2)CC1 | 0.11 | 0.008 | 0.04
COc1cc(N2CCOCC2)cn2c(=O)c(O)c(C(=O)NCc3ccc(F)cc3)nc12 | 0.17 | 0.0095 | 1.4
O=C(NCc1ccc(F)cc1)c1nc2c(Br)cc(N3CCOCC3)cn2c(=O)c1O | 0.13 | 0.007 | 0.07
O=C(NCc1cc(Cl)cc(Cl)c1)c1nc2c(N3CCCS3(=O)=O)cc(N3CCOCC3)cn2c(=O)c1O | 0.13 | 0.0002 | 0.043
Cn1c2ccccc2c2nc(C(=O)NCc3ccc(F)cc3)c(O)c(=O)n21 | 0.626 | – | –
O=C(NCc1ccc(F)cc1)c1nc2sccn2c(=O)c1O | 33.2 | – | –

Compound | IC50 [1] [µM] | EC50 [2] [µM] | EC50 [3] [µM]
O=C(NCc1ccc(F)cc1)c1nc2c(OCc3ccc(F)cc3)cc(N3CCOCC3)cn2c(=O)c1O | 0.275 | 0.08 | –
O=C(NCc1ccc(F)cc1)c1nc2ccc(Br)cn2c(=O)c1O | 0.445 | – | –
CC(C)Oc1cc(N2CCOCC2)cn2c(=O)c(O)c(C(=O)NCc3ccc(F)cc3)nc12 | 0.245 | 0.005 | –
Cc1cn2c(=O)c(O)c(C(=O)NCc3ccc(F)cc3)nc2s1 | 4.25 | – | –
CN1CCN(c2cc(N3CCN(C)S3(=O)=O)c3nc(C(=O)NCc4ccc(F)cc4)c(O)c(=O)n3c2)CC1 | – | 0.003 | 0.004
COc1cccc2c1sc1nc(C(=O)NCc3ccc(F)cc3)c(O)c(=O)n12 | > 50 | – | –
O=C(NCc1ccc(F)cc1)c1nc2c3ccccc3on2c(=O)c1O | > 10 | – | –
O=C(NCc1ccc(F)cc1)c1nc2c(I)cc(N3CCOCC3)cn2c(=O)c1O | 0.085 | 0.006 | 0.05
O=C(NCc1ccc(F)cc1)c1nc2ccccn2c(=O)c1O | 0.587 | – | –
O=C(NCc1ccc(F)cc1)c1nc2sc3ccccc3n2c(=O)c1O | > 30 | – | –
CN1CCN(c2cc(N(C)S(C)(=O)=O)c3nc(C(=O)NCc4ccc(F)cc4)c(O)c(=O)n3c2)CC1 | – | 0.0198 | 0.0615
Cc1cc2nc(C(=O)NCc3ccc(F)cc3)c(O)c(=O)n2o1 | 5.1 | – | –
N#Cc1c[nH]n2c(=O)c(O)c(C(=O)NCc3ccc(F)cc3)nc12 | 13.7 | – | –
O=C(NCc1ccc(F)cc1)c1nc2sc(N3CCOCC3)cn2c(=O)c1O | 1.13 | – | –
O=C(NCc1ccc(F)cc1)c1nc2ccc(N3CCOCC3)cn2c(=O)c1O | 0.08 | 0.215 | –
O=C(NCc1ccc(F)cc1)c1nc2c3ccc(N4CCOCC4)cc3on2c(=O)c1O | > 10 | – | –
O=C(NCc1ccc(F)cc1)c1nc2c3ccccc3[nH]n2c(=O)c1O | > 10 | – | –
